Measurements reported in patent US9616037B2, “Aryl-phenyl-sulfonamido-cycloalkyl compounds and their use” (PIMCO 2664 Limited, priority 2008, dated 2017).
Converted amounts (≈) assume the structure as drawn.

Tests used:
[1] = Thermodynamic aqueous solubility in fasted state simulated intestinal fluid (FaSSIF); format: physicochemical; settings: pH 6.5, thermodynamic from solid, equilibrated at 25° C. for 24 hours, HPLC
Method: Initial screening of candidate compounds was performed using in vitro assays to determine potency, metabolic stability and solubility in biologically relevant fluids. Potency was assessed using a viability assay based on the survival of the J774 macrophage cell line. […] Like osteoclasts, J774 macrophages are dependent on continued NFκB activation for survival, thereby providing a valuable screen for compounds with anti-inflammatory activity. Metabolic stability was measured by determining the rate of disappearance of compound in the presence of human liver microsomal preparations, as quantified by LC-MS/MS. Solubility was measured by equilibration of the compound in fasted state simulated intestinal fluid (FaSSIF) and quantified by HPLC.
Thermodynamic aqueous solubility was measured by equilibration of a number of APSAC compounds, in the solid state, with fasted state simulated intestinal fluid (FaSSIF) and quantified by HPLC. Measurement of solubility in FaSSIF provides a valuable model for the prediction of drug dissolution following oral administration.
The pH was adjusted to 6.5 using 1 M NaOH solution.
0.6 mL of a solution containing 100 mg/mL lecithin in methylene chloride was added. The methylene chloride was eliminated under vacuum at about 40° C. The vacuum was drawn for 15 minutes at 250 mbar, followed by 15 minutes at 100 mbar. […] After cooling to room temperature, the solution was then adjusted to 100 mL with blank FaSSIF.
The suspension was equilibrated at 25° C. for 24 hours, and then the pH was measured. The suspension was then filtered through a glass fibre C filter into a 96-well plate. The filtrate was then diluted by a factor of 100. Quantification was made by HPLC with reference to a standard solution of compound at approximately 0.1 mg/mL in DMSO. Different volumes of the standard, diluted and undiluted sample solutions were injected. […] Analysis was performed on an Agilent HP1100 series system equipped with a diode array detector and using ChemStation software vB.02.01-SR1.

[2] = test system: caspase 3; assay: Caspase induction study (Nucview488 fluorogenic substrate) in the presence of TNFα; format: cell-based; settings: human monocytes, 10 μM test compound, 10 ng/mL TNFα, Nucview488 stain
Method: The ability to activate caspase 3 was studied using a fluorogenic enzyme substrate assay.
Briefly, human primary monocytes were isolated from whole blood using Ficoll gradients. The resulting cells were plated into microwell plates for 24 hours after which non-adherent cells were removed by washing. Cells were differentiated in the presence of 100 ng/mL MCSF. Cells were pre-treated with 10 μM test compound for 1 hour prior to stimulation with 10 ng/mL TNFα. Caspase 3 activation as an indicator of apoptosis was detected using the Nucview488 stain, which was added one hour prior to visualisation. The Nucview488 stain indicates the activation of caspase 3 (CPP32, apopain, YAMA), a cysteine peptidase which plays a key role in the induction of apoptosis in individual whole mammalian cells. Essentially, Nucview488 consists of a fluorogenic DNA dye and a DEVD substrate moiety specific for caspase 3. In itself, Nucview488 is nonfluorescent. However, upon entering the cell cytoplasm, Nucview488 is cleaved by caspase 3 to form a high-affinity DNA dye. The released DNA dye migrates to the cell nucleus to stain the nucleus bright green. This fluorescent staining produced in response to caspase 3 activity is monitored using fluorescent light microscopy.

[3] = test system: J774 macrophages; assay: Alamar Blue macrophage J774 viability assay; format: cell-based; settings: Mus musculus; J774 cells, 72 hours with compound, Alamar Blue readout; read-out: IC50
Method: Initial screening of candidate compounds was performed using in vitro assays to determine potency, metabolic stability and solubility in biologically relevant fluids. Potency was assessed using a viability assay based on the survival of the J774 macrophage cell line. Macrophages are closely related to osteoclasts and have been used previously as a model system for osteoclast survival (see, e.g., Luckman et al., 1998). Like osteoclasts, J774 macrophages are dependent on continued NFκB activation for survival, thereby providing a valuable screen for compounds with anti-inflammatory activity. Metabolic stability was measured by determining the rate of disappearance of compound in the presence of human liver microsomal preparations, as quantified by LC-MS/MS. Solubility was measured by equilibration of the compound in fasted state simulated intestinal fluid (FaSSIF) and quantified by HPLC.
In vitro potency as anti-inflammatory agents was determined for a number of APSAC compounds by incubation with J774 macrophages and subsequent determination of cell viability.
J774 cells were plated at 10^4 cells per well in 100 μL αMEM (α Modified Eagle Medium) in 96-well plates and grown overnight. The next day, test compounds were added to the cultures, and cultures were continued for another 72 hours. At the end of the culture period, cell survival was determined using an Alamar Blue assay as previously described (see, e.g., Nociari et al., 1998).
Alamar Blue is an oxidation-reduction sensitive indicator. The dye itself is in the oxidised state, which is blue and non-fluorescent. The dye can accept electrons from reducing species, such as NADPH and FADH, to form a reduced dye species, which is red and fluorescent. Thus the transformation from oxidised form to reduced form can be measured by fluorimetric or colourimetric means. For fluorescence measurements, 530-560 nm excitation and 590 nm emission wavelengths are typically used. For colourimetric measurements, absorbance at 570 nm (reduced form) and 600 nm (oxidised form) is typically measured. A simple calculation is performed to determine the relative quantities of the two species.
A high ratio of the reducing species, NADPH and FADH, to the corresponding oxidised species, NADP and FAD, is an indicator that cells are proliferating and viable. A low ratio indicates cells that are quiescent or non-viable.
Briefly, Alamar Blue (Biosource International) was added undiluted to the each well (1:10 v/v, 10 μL). The plate was incubated at 37° C. for 3-4 hours and the fluorescence was measured at 590 nm, with a 25 nm bandwidth. A high reading indicated cells with normal viability, and a low reading indicated cells that have been damaged and are no longer proliferating normally. The controls gave a high fluorescence reading, indicating a high number of live, healthy cells. A potent test compound gave a low fluorescence reading. The average results for each test compound (n=5) were expressed as a percent (%) of the average control value.
Addition of Compounds. All of the compounds studied were made up as 100 mM solutions in DMSO. These stock solutions were then diluted 1000-10000× in culture medium (αMEM). From these 100 μM or 10 μM solutions, convenient quantities (3-33 μL) were added directly to the wells so as to give the desired final compound concentration.

| SMILES | solubility at 24 h [1] [µg/mL] | caspase 3 activation (fluorescence detected by light microscopy) [2] | IC50 [3] [nM] |
| --- | --- | --- | --- |
| O=S(=O)(N[C@H]1CC[C@@H](CO)CC1)c1ccc(-c2ccc(F)cc2F)cc1 [ABD781, 2′,4′-Difluoro-N-(cis-4-(hydroxymethyl)cyclohexyl)biphenyl-4-sulfonamide] | 590 (≈ 1550 µM) | significant activation of caspase 3 | 300 |
| O=S(=O)(N[C@H]1CC[C@@H](CO)C1)c1ccc(-c2ccc(F)cc2F)cc1 [ABD773, 2′,4′-Difluoro-N-((1 S,3R)-3-(hydroxymethyl)cyclopentyl)biphenyl-4-sulfonamide] | 890 (≈ 2420 µM) |  | 130 |
